{
  "source": "patent US20130202733A1",
  "about": "“ISOMALTULOSE FOR USE IN ENHANCING MENTAL PERFORMANCE” (SUEDZUCKER AKTIENGESELLSCHAFT MANNHEIM/OCHSENFURT, priority 2010, published 2013)",
  "key": {"healthy school children [1]": {"tested_on": "healthy school children", "experiment": "Attention test (paradigm of Shakow, signal detection, error rate) after isomaltulose or glucose sweetened meal", "format": "in vivo, human", "description": "(§1) Seventy-five healthy school children consumed in crossover design two meals designed to differ in their glycemic load (GL; Amount of carbohydrate×Glycemic Index, GI, of food items; GI of isomaltulose=32, GI of glucose=100) while being similar in macro-nutrient content. The cognitive test block takes 45 minutes and was once assessed in the early postprandial phase and once in the late post-prandial phase (>150 minutes) after meal ingestion. Every child participated in four blocks of testing (FIG. 2). • Early test block after meal A • Late test block after meal A • Early test block after meal B • Late test block after meal B\n(§2) On each cognitive test block parallel versions of the cognitive tests were administered.\n(§3) Both meals offered a similar intake of energy (1385 KJ) and macro-nutrients (84.4% carbohydrates, 10.6% protein and 5.0% fat) while differing in glycemic load (GL; Amount of carbohydrate×Glycemic Index of food items), that is whether glucose was released slowly or i quickly into the blood stream. The meals were composed as followed (% of total energy): • High GL meal: Cornflakes+milk (35.3%), yoghurt+fruit preparation (14.2%), glucose (50.5%). • Low GL meal: Cornflakes+milk (35.3%), yoghurt+fruit preparation (14.2%), isomaltulose (50.5%).\nThe paradigm of Shakow was used to assess attention with error rate as outcome (Shakow, Arch general Psychiat, 1962, 6, 1-17). […]"}, "subjects": {"tested_on": "subjects", "settings": "at 150 minutes following ingestion; cited from earlier work"}, "[2]": {"settings": "glucose standard = 100; cited from earlier work"}, "[3]": {"settings": "after ingestion of 50 g; cited from earlier work"}, "healthy school children [4]": {"tested_on": "healthy school children", "experiment": "Episodic memory test (Recall of Objects, British Ability Scales) after isomaltulose or glucose sweetened meal", "format": "in vivo, human", "description": "as §1, §2, §3\nThe approach was based on the Recall of Objects test of the British Ability Scales (Elliott, British Ability Scales, 1996, National foundation of Educational Research) and children had to recall up to 60 objects."}, "healthy adults": {"tested_on": "healthy adults", "settings": "milk-based drink; cited from earlier work"}},
  "note": "Entries after “also recorded” stand apart in the source; their conditions may differ.",
  "data": [
    {"smiles": "OC[C@H]1O[C@H](OC[C@H]2OC(O)(CO)[C@@H](O)[C@@H]2O)[C@H](O)[C@@H](O)[C@@H]1O", "note": "(some centres unmarked) [isomaltulose]", "values": [
      {"measurement": "attention error rate, isomaltulose meal versus glucose meal", "setting": "healthy school children [1]; early postprandial phase", "value": "nearly the same attention error rate; also recorded: nearly the same error rates"},
      {"measurement": "attention performance (error rate), isomaltulose meal versus glucose meal", "setting": "healthy school children [1]; late postprandial phase, >150 minutes after meal ingestion", "value": "performed better by tendency; also recorded: trend for better attention performance"},
      {"measurement": "cognitive performance tests versus sucrose-containing drinks", "setting": "subjects", "value": "performed significantly better"},
      {"measurement": "glycemic index (GI)", "setting": "[2]", "value": 32},
      {"measurement": "blood glucose or glycemic response curve versus sucrose", "setting": "[3]", "value": "much lower"},
      {"measurement": "time after ingestion at which blood glucose approximates the initial levels", "setting": "[3]", "value": "about 2.5 hours"},
      {"measurement": "episodic memory, isomaltulose meal versus glucose meal", "setting": "healthy school children [4]; early postprandial phase (early cognitive test block)", "value": "did not differ"},
      {"measurement": "episodic memory, isomaltulose meal versus glucose meal", "setting": "healthy school children [4]; late postprandial phase, >150 minutes after meal consumption", "value": "significantly better episodic memories"},
      {"measurement": "episodic memory, late postprandial phase compared to early postprandial phase", "setting": "healthy school children [4]; within the same meal", "value": "not significantly different"},
      {"measurement": "effect on cognitive performance", "setting": "healthy adults", "value": "does not affect cognitive performance"}
    ]},
    {"smiles": "OC[C@H]1O[C@@](CO)(O[C@H]2O[C@H](CO)[C@@H](O)[C@H](O)[C@H]2O)[C@@H](O)[C@@H]1O", "note": "[sucrose, reference compound]", "values": [
      {"measurement": "glycemic index (GI)", "setting": "[2]", "value": 65}
    ]}
  ]
}
